Assay results taken from the supplement of paper PMC10307832.

Experiments:
Experiment in all cases: relative viability (nuclei count vs DMSO), 5 days (fraction); higher = more cells survive
Wnt-C59 + Navitoclax = compound: CC1=NC=CC(=C1)C2=CC=C(C=C2)CC(=O)NC3=CC=C(C=C3)C4=CN=CC=C4 [Wnt-C59] + CC1(C)CCC(c2ccc(Cl)cc2)=C(CN2CCN(c3ccc(C(=O)NS(=O)(=O)c4ccc(N[C@H](CCN5CCOCC5)CSc5ccccc5)c(S(=O)(=O)C(F)(F)F)c4)cc3)CC2)C1 [Navitoclax] (partner 0.5 µM)
Summary of the method: (§1)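 Lung cancer cell lines were seeded in 1536-well plates and dosed by pin tool the next day, with either a single drug or a fixed anchor-drug dose combined with five library-drug doses (not always all listed) spaced in √10 steps. Five days later, one step fixed the cells and stained their nuclei (final 0.05% Triton X-100, 1% formaldehyde, 1 ug/ml Hoechst), and nuclei were counted on 4× images. Relative viability is the nuclei count in treated wells divided by the count in vehicle wells, and each value is the median of duplicate plates.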

Wnt-C59 + Olaparib = compound: CC1=NC=CC(=C1)C2=CC=C(C=C2)CC(=O)NC3=CC=C(C=C3)C4=CN=CC=C4 [Wnt-C59] + O=C(c1cc(Cc2n[nH]c(=O)c3ccccc23)ccc1F)N1CCN(C(=O)C2CC2)CC1 [Olaparib] (partner 8 µM)
Summary of the method: as §1

Lapatinib + Pemetrexed = compound: CS(=O)(=O)CCNCc1ccc(-c2ccc3ncnc(Nc4ccc(OCc5cccc(F)c5)c(Cl)c4)c3c2)o1 [Lapatinib] + Nc1nc2[nH]cc(CCc3ccc(C(=O)N[C@@H](CCC(=O)O)C(=O)O)cc3)c2c(=O)[nH]1 [Pemetrexed] (partner 0.2 µM)
Summary of the method: as §1

Lapatinib + Decitabine = compound: CS(=O)(=O)CCNCc1ccc(-c2ccc3ncnc(Nc4ccc(OCc5cccc(F)c5)c(Cl)c4)c3c2)o1 [Lapatinib] + Nc1ncn([C@H]2C[C@H](O)[C@@H](CO)O2)c(=O)n1 [Decitabine] (partner 2 µM)
Summary of the method: as §1

Cell Line	relative viability (Wnt-C59 + Navitoclax; first compound 0.001 µM)	relative viability (Wnt-C59 + Navitoclax; first compound 0.01 µM)	relative viability (Wnt-C59 + Navitoclax; first compound 0.03162 µM)	relative viability (Wnt-C59 + Navitoclax; first compound 0.1 µM)	relative viability (Wnt-C59 + Olaparib; first compound 0.001 µM)	relative viability (Wnt-C59 + Olaparib; first compound 0.01 µM)	relative viability (Wnt-C59 + Olaparib; first compound 0.03162 µM)	relative viability (Wnt-C59 + Olaparib; first compound 0.1 µM)	relative viability (Lapatinib + Pemetrexed; first compound 0.02 µM)	relative viability (Lapatinib + Pemetrexed; first compound 0.06325 µM)	relative viability (Lapatinib + Pemetrexed; first compound 0.2 µM)	relative viability (Lapatinib + Pemetrexed; first compound 0.6325 µM)	relative viability (Lapatinib + Pemetrexed; first compound 2 µM)	relative viability (Lapatinib + Decitabine; first compound 0.02 µM)	relative viability (Lapatinib + Decitabine; first compound 0.06325 µM)	relative viability (Lapatinib + Decitabine; first compound 0.2 µM)	relative viability (Lapatinib + Decitabine; first compound 0.6325 µM)	relative viability (Lapatinib + Decitabine; first compound 2 µM)
NCI-H1651	1.07	1.02	1.11	0.955	0.202	0.164	0.203	0.184	0.48	0.553	0.553	0.6	0.657	0.466	0.608	0.605	0.633	0.484
NCI-H1703	1.45	1.39	1.08	1.08	0.507	0.368	0.611	0.322										
NCI-H522					0.694	0.74	0.565	0.581		0.794	0.875	0.994	0.781		0.645	0.647	0.683	0.664
HCC-366	1.06	0.926	0.932	1.01	0.346	0.359	0.362	0.34		0.239	0.187	0.149	0.118		0.348	0.405	0.368	0.291
SK-LU-1	0.893	0.832	1.02	0.893	0.444	0.476	0.4	0.434	0.961	0.9	1.02	0.98	0.886	0.709	0.558	0.686	0.609	0.618
NCI-H520	1.11	1.13	1.11	1.05	0.299	0.313	0.381	0.357	0.741	0.636	0.604	0.712	0.489	0.433	0.494	0.572	0.529	0.575
NCI-H1437	1.16	1.03	1.16	1.09	0.626	0.629	0.62	0.605	0.303	0.302	0.279	0.289	0.329	0.603	0.527	0.56	0.53	0.569
NCI-H460	0.968	1.18	1.11	1.04	0.462	0.483	0.474	0.459	0.0637	0.0621	0.0581	0.0692	0.0618	0.429	0.488	0.542	0.435	0.461
LK-2	0.884	0.972	1.02	0.868	0.728	0.819	0.739	0.748	0.137		0.261		0.264	0.196		0.331	0.363	0.411
NCI-H358					0.623	0.609	0.576	0.801	0.173	0.157	0.16	0.167	0.189	0.205	0.181	0.206	0.162	0.152
NCI-H2085	1.28	1.15	1.23	1.05	0.795	0.769	0.822	0.744	0.743	0.806	0.911	0.847	0.605	0.579	0.528	0.512	0.521	0.477
NCI-H2405	0.946		0.702	0.867	0.851	0.879	0.898	0.861		0.977		1.04	1.01		0.602		0.709	0.616
NCI-H1666	1.14	0.909	1.01	0.863	0.732	0.758	0.711	0.817	0.858	0.789	0.851	0.841	0.67	0.599	0.72	0.709	0.641	0.58
NCI-H322M	1.21	1.05	0.978	0.993	0.704	0.804	0.828	0.765	0.648	0.54	0.571	0.575	0.49	0.632	0.552	0.648	0.567	0.555
NCI-H1563									0.651	0.862	0.652	0.843	0.666					
IA-LM	0.851	0.751	0.718	0.751	0.848	0.873	0.969	0.712										
CAL-12T	1.35	1.45	1.19	1.1	0.727	0.689	0.674	0.783	1.16	1.31	1.37	1.04	0.744					
NCI-H1395	1.24	1.1	1.08	1.32	0.497	0.444	0.411	0.424		0.938	0.87	0.887	0.793		0.719	0.802	0.729	0.701
NCI-H3122	1.02	0.976	0.958	0.98	0.633	0.549	0.637	0.504	0.212	0.199	0.206	0.197	0.193	0.426	0.364	0.376	0.456	0.421
HARA	1.18	1.17	1.17	1.13	0.826	0.784	0.866	0.856	0.222	0.225	0.274	0.277	0.224	0.575	0.525	0.522	0.37	0.398
EBC-1	0.378	0.405	0.431	0.513	0.742	0.75	0.681	0.635										
PC-3 [JPC-3]	0.868	0.815	0.933	0.809	1.18	1.21	1.22	1.16		1.13		0.995	0.588		0.786		0.954	0.598

Cell Line	relative viability (Wnt-C59 + Navitoclax; first compound 0.001 µM)	relative viability (Wnt-C59 + Navitoclax; first compound 0.01 µM)	relative viability (Wnt-C59 + Navitoclax; first compound 0.03162 µM)	relative viability (Wnt-C59 + Navitoclax; first compound 0.1 µM)	relative viability (Wnt-C59 + Olaparib; first compound 0.001 µM)	relative viability (Wnt-C59 + Olaparib; first compound 0.01 µM)	relative viability (Wnt-C59 + Olaparib; first compound 0.03162 µM)	relative viability (Wnt-C59 + Olaparib; first compound 0.1 µM)	relative viability (Lapatinib + Pemetrexed; first compound 0.02 µM)	relative viability (Lapatinib + Pemetrexed; first compound 0.06325 µM)	relative viability (Lapatinib + Pemetrexed; first compound 0.2 µM)	relative viability (Lapatinib + Pemetrexed; first compound 0.6325 µM)	relative viability (Lapatinib + Pemetrexed; first compound 2 µM)	relative viability (Lapatinib + Decitabine; first compound 0.02 µM)	relative viability (Lapatinib + Decitabine; first compound 0.06325 µM)	relative viability (Lapatinib + Decitabine; first compound 0.2 µM)	relative viability (Lapatinib + Decitabine; first compound 0.6325 µM)	relative viability (Lapatinib + Decitabine; first compound 2 µM)
SK-MES-1	1.2	1.17	1.3	1.16	0.662	0.684	0.863	0.615	0.824	0.93	0.943	0.997	0.405	0.429	0.364	0.37	0.306	0.311
Calu-6	0.801	0.97	0.757	0.787	0.572	0.576	0.698	0.614										
NCI-H838	1.24	1.18	1.18	1.16	0.765	0.806	0.807	0.739	0.275	0.244	0.258	0.311	0.251	0.475	0.453	0.495	0.484	0.44
NCI-H2009	1.13	1.23	1.14	1.14	0.644	0.765	0.734	0.727	0.972	1.02	1.05	0.98	0.998	0.383	0.4	0.342	0.353	0.357
NCI-H647	1.16	0.972	1.12	0.967	0.579	0.539	0.762	0.513	0.176	0.149	0.162	0.168	0.158	0.416	0.284	0.431	0.377	0.383
NCI-H1993	1.04	0.82	1.09	0.972	1.17	1.06	1.11	0.413	0.595		0.578	0.607	0.543	0.68		0.555	0.64	0.462
LCLC-97TM1	0.429	0.445	0.505	0.264	0.403	0.434	0.358	0.323		0.128	0.184	0.168	0.176		0.232	0.222	0.268	0.268
EKVX	0.991	0.87	0.896	0.788	0.837		0.906	0.72		0.361	0.344	0.274	0.355		0.326	0.333	0.304	0.138
NCI-H596	1.04	0.802	1.05	1.05	0.7	0.664	0.742	0.745		0.505	0.531	0.504	0.494		0.979	0.793	1.04	0.957
NCI-H1975	1.25	1.11	1.06	1.2	0.797	0.807	0.786	0.869	0.316	0.298	0.287	0.283	0.284	0.374	0.413	0.389	0.397	0.312
A549	1.23	1.31	1.29	1.12	0.302	0.321	0.357	0.332							0.224	0.305	0.291	0.133
NCI-H1648					1.13	0.76	1.3	0.679		0.62	0.789	0.636	0.64		0.389	0.495	0.481	0.33
SW 900					0.887	0.814	0.987	0.987		0.432	0.494	0.471	0.45		0.392	0.428	0.44	0.425
LCLC-103H					0.81	0.737	0.699	0.793	0.558	0.437	0.47	0.494	0.425	0.764	0.657	0.652	0.775	0.666
NCI-H2228	0.957	0.87	0.68	1.05	1.04	0.635	0.641	0.734	0.338	0.34	0.312	0.272	0.331					
NCI-H2342					0.792	0.489	0.446	0.396	0.576	0.712	0.723	0.776	0.714	0.706	0.694	0.618	0.691	0.638
ABC-1					1	0.898	0.502	0.846						1.1	0.931		1.01	1.02
NCI-H650					0.415	0.354	0.418	0.454		0.881	0.913	1.08	0.963		0.319	0.328	0.324	0.343
NCI-H661					0.739	0.73	0.797	0.698	0.872	0.773	0.834	0.736	0.756	0.48	0.474	0.489	0.387	0.423
NCI-H1299	1.03	1.06	1.02	1.02	0.918	0.953	0.932	0.937										
NCI-H727	0.554	0.542	0.459	0.451	0.691	0.697	0.823	0.677						0.756		0.915	0.915	0.917
